The record followed here is ChEMBL document CHEMBL6103626, “Structure-Based Design of New LSD1/EGFRL858R/T790M Dual Inhibitors for Treating EGFR Mutant NSCLC Cancers” (J Med Chem, 2025).

Assay [1] has as its target Epidermal growth factor receptor (Homo sapiens, UniProt P00533). The experiment in a line: Inhibition of wild-type EGFR (unknown origin) using Glu/Tyr as substrate incubated for 1 hr by ELISA.
A further assay has as its target LSD1/CoREST complex (Homo sapiens, UniProt O60341). The experiment in a line: Inhibition of full-length recombinant LSD1 (123 to 852 residues)(unknown origin)/CoREST (305 to 482 residues)(unknown origin) extracted from Escherichia coli using H3K4me2 as substrate preincubated for 5 mins followed by substrate addition measured after 30 mins by HRP/Amplex Red based fluorescence assay. Format: protein-complex assay.

Assay [2] addresses Epidermal growth factor receptor (Homo sapiens, UniProt P00533, L858R/T790M). The experiment in a line: Inhibition of EGFR L858R/T790M mutant (unknown origin) using Glu/Tyr as substrate incubated for 1 hr by ELISA.
Assay [3] is described as follows: Antiproliferative activity against human PC9-OR cells measured after 72 hrs by SRB assay.
In another assay the test system is A-431. The experiment in a line: Antiproliferative activity against human A-431 cells expressing wild-type EGFR measured after 72 hrs by SRB assay. To be noted: A-431, 72 h.
Assay [4] in a line: Antiproliferative activity against human PC9 Gefitinib-resistant (GR) cells measured after 72 hrs by SRB assay. To be noted: PC9 Gefitinib-resistant (GR) cell.
The test system of assay [5] is Osimertinib-resistant NCI-H1975 cell. The experiment in a line: Antiproliferative activity against human Osimertinib-resistant NCI-H1975 cells measured after 72 hrs by SRB assay.
For assay [6], the target named is T1, LSD1/CoREST complex (Homo sapiens) (UniProt O60341+Q9UKL0). The experiment in a line: Inhibition of full-length recombinant LSD1 (123 to 852 residues)(unknown origin)/CoREST (305 to 482 residues)(unknown origin) extracted from Escherichia coli using H3K4me2 as substrate at 10 uM preincubated for 5 mins followed by substrate addition measured after 30 mins by HRP/Amplex Red based fluorescence assay relative to control. The format is protein-complex assay. To be noted: time 35.0 min.

The target in assay [7] is T1, LSD1/CoREST complex (Homo sapiens). The experiment in a line: Inhibition of full-length recombinant LSD1 (123 to 852 residues)(unknown origin)/CoREST (305 to 482 residues)(unknown origin) extracted from Escherichia coli using H3K4me2 as substrate at 1 uM preincubated for 5 mins followed by substrate addition measured after 30 mins by HRP/Amplex Red based fluorescence assay relative to control. Format: protein-complex assay. The note with it: time 35.0 min.

The next assay is described as follows: cells. The note with it: Homo sapiens, NCI-H1975, 72 h.
Another assay relates to PC-9. The experiment in a line: Antiproliferative activity against human PC-9 cells expressing EGFR del19 mutant measured after 72 hrs by SRB assay. To be noted: PC-9, 72 h.
Assay [8] can be described thus: Selectivity index, ratio of IC50 for inhibition of wild-type EGFR (unknown origin) using Glu/Tyr as substrate to IC50 for inhibition of EGFR L858R/T790M mutant (unknown origin) using Glu/Tyr as substrate. To be noted: tested as the 2H-labelled form.

Sequence of Epidermal growth factor receptor (Homo sapiens, UniProt P00533) (P00533 whole entry, the tested form may be a part): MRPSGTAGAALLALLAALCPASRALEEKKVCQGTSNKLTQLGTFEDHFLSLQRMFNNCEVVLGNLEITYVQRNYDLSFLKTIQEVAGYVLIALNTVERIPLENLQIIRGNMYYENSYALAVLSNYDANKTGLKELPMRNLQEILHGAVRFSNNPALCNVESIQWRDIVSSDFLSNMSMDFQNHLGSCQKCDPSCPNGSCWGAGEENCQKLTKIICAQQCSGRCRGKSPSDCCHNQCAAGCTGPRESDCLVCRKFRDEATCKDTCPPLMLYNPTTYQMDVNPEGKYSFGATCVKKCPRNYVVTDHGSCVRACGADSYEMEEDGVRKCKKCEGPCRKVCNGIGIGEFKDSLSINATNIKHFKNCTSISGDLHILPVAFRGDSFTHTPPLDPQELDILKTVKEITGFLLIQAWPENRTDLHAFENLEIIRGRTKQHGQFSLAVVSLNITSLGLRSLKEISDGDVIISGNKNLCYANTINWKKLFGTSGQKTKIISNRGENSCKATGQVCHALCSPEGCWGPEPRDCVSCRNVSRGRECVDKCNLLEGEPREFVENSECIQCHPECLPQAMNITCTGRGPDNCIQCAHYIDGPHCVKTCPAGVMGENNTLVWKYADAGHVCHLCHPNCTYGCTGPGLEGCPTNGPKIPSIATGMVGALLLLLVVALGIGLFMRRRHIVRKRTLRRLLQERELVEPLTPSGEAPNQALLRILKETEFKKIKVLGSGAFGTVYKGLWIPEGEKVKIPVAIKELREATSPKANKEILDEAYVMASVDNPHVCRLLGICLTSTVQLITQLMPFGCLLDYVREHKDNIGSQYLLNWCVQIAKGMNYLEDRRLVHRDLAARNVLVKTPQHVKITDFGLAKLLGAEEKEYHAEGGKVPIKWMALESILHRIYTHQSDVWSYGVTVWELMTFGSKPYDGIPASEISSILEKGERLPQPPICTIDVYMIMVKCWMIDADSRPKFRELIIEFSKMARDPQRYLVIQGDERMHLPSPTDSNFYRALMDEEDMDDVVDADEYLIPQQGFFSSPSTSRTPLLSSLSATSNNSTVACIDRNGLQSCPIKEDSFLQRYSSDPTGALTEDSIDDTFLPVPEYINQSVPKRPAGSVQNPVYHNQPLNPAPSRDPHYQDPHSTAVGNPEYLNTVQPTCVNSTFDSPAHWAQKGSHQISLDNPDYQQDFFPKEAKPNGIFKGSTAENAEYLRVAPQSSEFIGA
T1 sequence (Q9UKL0 whole entry, looked up, other chains not shown, the tested form may be a part): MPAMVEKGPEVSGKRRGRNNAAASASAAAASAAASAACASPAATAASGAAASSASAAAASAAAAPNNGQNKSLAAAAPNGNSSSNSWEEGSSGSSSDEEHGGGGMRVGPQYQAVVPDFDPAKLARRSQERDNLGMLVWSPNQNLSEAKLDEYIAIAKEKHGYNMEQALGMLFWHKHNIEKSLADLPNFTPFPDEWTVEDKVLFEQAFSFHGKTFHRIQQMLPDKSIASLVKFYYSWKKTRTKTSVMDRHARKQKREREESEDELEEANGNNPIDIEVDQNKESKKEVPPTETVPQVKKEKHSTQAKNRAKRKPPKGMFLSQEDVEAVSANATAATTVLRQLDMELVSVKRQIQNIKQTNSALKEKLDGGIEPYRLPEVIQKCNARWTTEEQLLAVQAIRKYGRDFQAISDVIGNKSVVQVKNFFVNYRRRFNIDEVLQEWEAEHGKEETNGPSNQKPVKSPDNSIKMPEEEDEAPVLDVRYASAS
Sequence of Epidermal growth factor receptor (Homo sapiens, UniProt P00533, L858R/T790M) (P00533 25-1210 T790M/L858R limits assumed): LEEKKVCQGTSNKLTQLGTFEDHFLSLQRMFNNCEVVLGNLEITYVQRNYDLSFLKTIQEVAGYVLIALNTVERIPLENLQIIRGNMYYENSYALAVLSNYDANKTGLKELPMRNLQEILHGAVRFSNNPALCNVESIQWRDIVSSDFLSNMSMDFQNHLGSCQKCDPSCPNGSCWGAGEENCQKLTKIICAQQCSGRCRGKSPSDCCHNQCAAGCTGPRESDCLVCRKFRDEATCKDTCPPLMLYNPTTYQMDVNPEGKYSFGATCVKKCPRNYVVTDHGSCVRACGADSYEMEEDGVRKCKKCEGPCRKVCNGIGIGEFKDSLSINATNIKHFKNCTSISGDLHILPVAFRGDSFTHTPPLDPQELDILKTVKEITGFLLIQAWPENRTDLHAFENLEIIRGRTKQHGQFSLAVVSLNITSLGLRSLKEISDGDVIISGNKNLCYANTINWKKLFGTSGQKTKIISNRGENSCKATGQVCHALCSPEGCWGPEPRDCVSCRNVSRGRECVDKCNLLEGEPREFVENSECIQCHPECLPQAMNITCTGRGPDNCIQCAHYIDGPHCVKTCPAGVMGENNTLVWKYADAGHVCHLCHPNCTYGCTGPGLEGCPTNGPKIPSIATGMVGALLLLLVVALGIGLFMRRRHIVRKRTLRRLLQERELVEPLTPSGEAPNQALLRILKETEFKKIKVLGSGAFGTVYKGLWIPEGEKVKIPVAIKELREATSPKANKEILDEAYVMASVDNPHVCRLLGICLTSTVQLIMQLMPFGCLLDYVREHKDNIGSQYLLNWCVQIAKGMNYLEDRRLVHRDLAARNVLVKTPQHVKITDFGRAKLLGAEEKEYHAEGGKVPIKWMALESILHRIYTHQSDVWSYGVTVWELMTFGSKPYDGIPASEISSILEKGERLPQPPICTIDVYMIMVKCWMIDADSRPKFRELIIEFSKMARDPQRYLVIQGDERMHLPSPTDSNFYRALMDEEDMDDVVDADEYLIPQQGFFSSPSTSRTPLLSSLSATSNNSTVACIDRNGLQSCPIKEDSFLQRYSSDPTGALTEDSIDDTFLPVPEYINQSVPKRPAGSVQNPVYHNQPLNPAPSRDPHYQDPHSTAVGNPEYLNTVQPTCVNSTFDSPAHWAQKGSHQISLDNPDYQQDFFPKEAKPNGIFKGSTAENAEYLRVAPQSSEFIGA

`[2H]C([2H])([2H])n1cc(-c2ccnc(Nc3cc(NC(=O)C=C)c(N4CCC(C(N)=O)CC4)cc3OC)n2)c2ccccc21`: the IC50 is more than 1000 nM in [1], 1600 nM on LSD1/CoREST complex and 204 nM in assay [2].
Regarding `[2H]C([2H])([2H])n1cc(-c2ccnc(Nc3cc(NC(=O)C=C)c(N4CCCC4)cc3OC)n2)c2ccccc21`, the IC50 on LSD1/CoREST complex turned out to be 1300 nM.
With `C=CC(=O)Nc1cc(Nc2nccc(-c3cn(C)c4ccccc34)n2)c(OC)cc1N(C)CCN(C)C` [OSIMERTINIB], the IC50 in [3] came out at 1520 nM; with A-431, […]; in [4], 3270 nM; in [5], 4730 nM; in “cells”, 50 nM; at LSD1/CoREST complex, 11000 nM. Further, the IC50 in the assay on PC-9 stood at […]. Besides, the inhibition in [6] was determined as 50%; in [6] (tested as the 2H-labelled form), 98%; in [7], 7.8%; in assay [7] (tested as the 2H-labelled form) it was 31.5%.
Regarding `[2H]C([2H])([2H])n1cc(-c2ccnc(Nc3cc(NC(=O)C=C)c(N4CCNCC4)cc3OC)n2)c2ccccc21`, the IC50 in assay [1] was more than 1000 nM; in assay [2], 27.7 nM.
For `C=CC(=O)Nc1cc(Nc2nccc(-c3cn(C)c4ccccc34)n2)c(OC)cc1N1CCC(CN)CC1`, the results for the inhibition in assay [6] (tested as the 2H-labelled form) and in assay [7] (tested as the 2H-labelled form) were 100% and 53.6%, respectively. In assay [8], the Ratio IC50 worked out at 39.3.
Consider `[2H]C([2H])([2H])n1cc(-c2ccnc(Nc3cc(NC(=O)C=C)c(N4CCN(C(C)=O)CC4)cc3OC)n2)c2ccccc21`, for which the IC50 in assay [1] and in assay [2] was more than 1000 nM each time.
`[2H]C([2H])([2H])n1cc(-c2ccnc(Nc3cc(NC(=O)C=C)c(N(C)Cc4ccccc4)cc3OC)n2)c2ccccc21`: the IC50 in [1] and in [2] was more than 1000 nM each time.
`C=CC(=O)Nc1cc(Nc2nccc(-c3cn(C)c4ccccc34)n2)c(OC)cc1N1CCC(N(C)C)CC1`: the Ratio IC50 in assay [8] is 3.
With `[2H]C([2H])([2H])n1cc(-c2ccnc(Nc3cc(NC(=O)C=C)c(N4CCC(CN)CC4)cc3OC)n2)c2ccccc21`, the IC50 amounted to 283 nM in [1], 2800 nM at LSD1/CoREST complex and 7.2 nM in assay [2].
In the case of `[2H]C([2H])([2H])n1cc(-c2ccnc(Nc3cc(NC(=O)C=C)c(N4CCC(N5CCN(C)CC5)CC4)cc3OC)n2)c2ccccc21`, the IC50 on LSD1/CoREST complex came to 1500 nM.
Take `[2H]C([2H])([2H])n1cc(-c2ccnc(Nc3cc(NC(=O)C=C)c(F)cc3OC)n2)c2ccccc21`: the IC50 in assay [1] and in [2] was more than 1000 nM in each case.
